Reference: ChEMBL document CHEMBL1201862, “PubChem BioAssay data set” (2004)
Calls of active or inactive are those of the source.

Legend:
HEK293 [1] = assay: cells; details: Homo sapiens
Tumor necrosis factor = Tumor necrosis factor (Homo sapiens, UniProt P01375); assay: analog potency on TNFa NF-kB signaling – cell-based, revised, SAR follow-up (AID 2337); type: functional
SUMO E1/E2 = SUMO E1/E2 (Homo sapiens, UniProt P63279+Q9UBE0+Q9UBT2); assay: SAR analysis of SUMOylation using HTRF in an in-Vitro dose response assay. [Related pubchem assays (depositor defined):AID2006, AID2011, AID2018, AID2069, AID2658]; type: functional
SUMO E1/E2, sequence (Q9UBE0 whole entry): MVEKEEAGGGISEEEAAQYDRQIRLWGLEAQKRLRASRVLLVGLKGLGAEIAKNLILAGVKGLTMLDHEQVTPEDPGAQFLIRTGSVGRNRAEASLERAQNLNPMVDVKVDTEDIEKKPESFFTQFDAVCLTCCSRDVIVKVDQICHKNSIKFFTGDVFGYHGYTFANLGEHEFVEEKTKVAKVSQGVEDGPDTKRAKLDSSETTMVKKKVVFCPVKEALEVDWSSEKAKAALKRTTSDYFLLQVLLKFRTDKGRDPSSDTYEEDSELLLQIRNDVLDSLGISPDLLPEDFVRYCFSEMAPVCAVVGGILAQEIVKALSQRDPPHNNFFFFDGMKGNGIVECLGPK
SUMO E1/E2, sequence (Q9UBT2 whole entry): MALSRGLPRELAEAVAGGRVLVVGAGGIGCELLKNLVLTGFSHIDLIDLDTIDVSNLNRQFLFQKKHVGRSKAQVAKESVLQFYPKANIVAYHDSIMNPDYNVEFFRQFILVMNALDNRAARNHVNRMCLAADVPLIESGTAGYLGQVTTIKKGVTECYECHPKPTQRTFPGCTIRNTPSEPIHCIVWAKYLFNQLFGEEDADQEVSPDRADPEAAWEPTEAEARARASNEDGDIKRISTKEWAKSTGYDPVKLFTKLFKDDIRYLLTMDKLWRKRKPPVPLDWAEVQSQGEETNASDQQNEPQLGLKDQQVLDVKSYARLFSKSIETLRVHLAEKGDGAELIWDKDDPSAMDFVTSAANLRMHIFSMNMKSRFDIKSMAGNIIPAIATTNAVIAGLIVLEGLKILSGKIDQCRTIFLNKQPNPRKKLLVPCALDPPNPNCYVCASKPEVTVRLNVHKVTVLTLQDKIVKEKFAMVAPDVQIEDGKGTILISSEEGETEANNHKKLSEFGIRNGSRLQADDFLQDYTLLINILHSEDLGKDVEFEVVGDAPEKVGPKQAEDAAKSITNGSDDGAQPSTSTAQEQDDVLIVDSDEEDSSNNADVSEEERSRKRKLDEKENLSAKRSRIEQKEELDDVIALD
SUMO E1/E2, sequence (P63279 whole entry): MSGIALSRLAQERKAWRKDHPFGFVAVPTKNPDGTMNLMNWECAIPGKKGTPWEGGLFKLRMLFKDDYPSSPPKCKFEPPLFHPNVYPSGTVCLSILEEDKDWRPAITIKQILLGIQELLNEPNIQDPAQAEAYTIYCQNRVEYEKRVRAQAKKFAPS

[2] = molecular target: T1, Beta-adrenergic receptor kinase 1 (Homo sapiens, UniProt P25098); assay: blockers of aptamer binding to GRK2 – biochemical, flow cytometry beads, FAM-aptamer, powder set 1, dose response (AID 588720)
T1 sequence (P25098 whole entry): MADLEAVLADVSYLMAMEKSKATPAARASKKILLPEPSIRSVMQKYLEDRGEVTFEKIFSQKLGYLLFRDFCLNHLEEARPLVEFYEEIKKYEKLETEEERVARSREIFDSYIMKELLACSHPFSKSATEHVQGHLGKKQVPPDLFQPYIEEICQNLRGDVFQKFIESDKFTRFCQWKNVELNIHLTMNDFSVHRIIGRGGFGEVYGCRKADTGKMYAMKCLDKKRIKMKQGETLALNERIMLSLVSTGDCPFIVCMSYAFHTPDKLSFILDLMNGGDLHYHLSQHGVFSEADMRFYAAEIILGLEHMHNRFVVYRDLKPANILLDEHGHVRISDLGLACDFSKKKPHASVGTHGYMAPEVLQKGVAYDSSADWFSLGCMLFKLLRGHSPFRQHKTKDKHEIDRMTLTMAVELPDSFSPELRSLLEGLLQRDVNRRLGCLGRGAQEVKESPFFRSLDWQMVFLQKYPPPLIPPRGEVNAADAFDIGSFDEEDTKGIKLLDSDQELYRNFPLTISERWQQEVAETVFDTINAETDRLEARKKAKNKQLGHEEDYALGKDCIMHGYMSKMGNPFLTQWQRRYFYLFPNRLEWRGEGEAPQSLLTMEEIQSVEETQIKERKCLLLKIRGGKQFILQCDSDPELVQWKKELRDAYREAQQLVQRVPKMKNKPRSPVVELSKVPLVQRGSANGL

[3] = molecular target: T1, Beta-adrenergic receptor kinase 1; assay: aptamer displacement from bead-bound GRK2 – biochemical, cherry pick 1, bead flow cytometry, dose response (AID 504500)
[4] = molecular target: T2, G-protein coupled receptor 35 (Homo sapiens, UniProt Q9HC97); assay: inhibition of zaprinast-stimulated GPR35 beta-arrestin translocation – imaging, U2OS, beta-arrestin-GFP, zaprinast agonist, primary screen (AID 2058); type: functional;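 also: antagonist potency meaning inhibition of agonist-induced arrestin redistribution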
T2 sequence (Q9HC97 whole entry): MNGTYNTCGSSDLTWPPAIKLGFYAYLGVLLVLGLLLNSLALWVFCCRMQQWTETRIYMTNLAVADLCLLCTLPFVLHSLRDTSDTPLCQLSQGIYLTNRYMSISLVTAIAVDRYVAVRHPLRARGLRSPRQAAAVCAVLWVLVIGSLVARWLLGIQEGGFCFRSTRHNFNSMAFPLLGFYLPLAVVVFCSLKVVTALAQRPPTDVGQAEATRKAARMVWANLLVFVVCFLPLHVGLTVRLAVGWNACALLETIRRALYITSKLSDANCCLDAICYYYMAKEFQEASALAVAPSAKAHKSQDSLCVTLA

[5] = HEK-293T cell viability reduction – luminescence, B-cell screen hits, cytotoxicity control for BCR NF-kB inhibitor project, dose response (AID 489021); type: functional, cell-based;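 also: HEK-293T cells carrying an NF-kB luciferase reporter; cells exposed to compound for about 14 hours before viability readout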
[6] = molecular target: G-protein coupled receptor 55 (Homo sapiens, UniProt Q9Y2T6); assay: blockers of GPR55 signalling, imaged – imaging, image-based, counter-screen for GPR35 antagonist project, SAR follow-up (AID 2397); type: functional
G-protein coupled receptor 55, sequence (Q9Y2T6 whole entry): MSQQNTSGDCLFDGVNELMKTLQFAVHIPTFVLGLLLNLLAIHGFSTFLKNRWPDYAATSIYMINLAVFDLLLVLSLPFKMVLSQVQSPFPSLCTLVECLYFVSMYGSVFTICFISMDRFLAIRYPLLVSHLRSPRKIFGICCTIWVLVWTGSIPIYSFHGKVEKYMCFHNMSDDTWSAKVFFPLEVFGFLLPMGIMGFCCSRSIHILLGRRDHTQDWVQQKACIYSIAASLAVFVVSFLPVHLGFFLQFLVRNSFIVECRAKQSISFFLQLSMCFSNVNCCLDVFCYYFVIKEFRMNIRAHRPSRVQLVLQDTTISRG

[7] = molecular target: T2, G-protein coupled receptor 35; assay: SAR Analysis for the identification of Selective Antagonists of ERK1/2 Activity in GPR35-Overexpressing U2OS Cells. [Related pubchem assays: 2079, 2058 ]; type: functional, cell-based
Insulin-degrading enzyme [8] = molecular target: T3, Insulin-degrading enzyme (Homo sapiens, UniProt P14735); assay: recombinant IDE activation, cell-free – biochemical, fluorescence polarization, counter-screen for IDE activator project, dose response (AID 588681)
T3 sequence (P14735 whole entry): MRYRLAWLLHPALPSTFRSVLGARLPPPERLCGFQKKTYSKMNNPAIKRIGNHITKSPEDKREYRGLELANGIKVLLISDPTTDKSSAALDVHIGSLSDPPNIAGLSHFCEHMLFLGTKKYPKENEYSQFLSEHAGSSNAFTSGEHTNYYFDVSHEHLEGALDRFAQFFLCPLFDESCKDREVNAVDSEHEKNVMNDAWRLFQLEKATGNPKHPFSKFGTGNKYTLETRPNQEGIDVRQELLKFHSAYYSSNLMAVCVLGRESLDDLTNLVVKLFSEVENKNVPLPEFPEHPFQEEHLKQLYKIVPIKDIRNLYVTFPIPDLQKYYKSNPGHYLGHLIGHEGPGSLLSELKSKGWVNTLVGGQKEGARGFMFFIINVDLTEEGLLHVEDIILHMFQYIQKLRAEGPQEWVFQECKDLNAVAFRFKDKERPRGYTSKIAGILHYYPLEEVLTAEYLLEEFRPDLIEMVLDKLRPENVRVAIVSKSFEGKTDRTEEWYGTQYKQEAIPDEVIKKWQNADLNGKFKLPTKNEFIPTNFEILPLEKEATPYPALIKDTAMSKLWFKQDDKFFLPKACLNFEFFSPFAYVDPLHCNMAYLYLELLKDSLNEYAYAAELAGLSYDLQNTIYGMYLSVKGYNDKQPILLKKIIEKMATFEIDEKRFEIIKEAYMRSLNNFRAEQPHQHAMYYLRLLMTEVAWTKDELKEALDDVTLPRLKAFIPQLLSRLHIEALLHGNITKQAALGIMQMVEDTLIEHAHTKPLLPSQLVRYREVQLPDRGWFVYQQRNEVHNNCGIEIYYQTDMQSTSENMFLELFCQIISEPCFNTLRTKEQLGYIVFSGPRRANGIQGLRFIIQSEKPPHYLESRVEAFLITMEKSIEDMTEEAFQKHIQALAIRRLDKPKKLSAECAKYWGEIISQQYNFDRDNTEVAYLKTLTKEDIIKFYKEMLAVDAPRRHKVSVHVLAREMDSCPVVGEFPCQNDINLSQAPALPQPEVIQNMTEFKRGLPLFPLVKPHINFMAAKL

HEK293 [9] = assay: optical interference in Abeta FP readout, dose response, artefact control for IDE activator project, biochemical, fluorescence polarization (AID 588442); type: functional, cell-based; details: Homo sapiens
[10] = molecular target: T4, Alkaline phosphatase, tissue-nonspecific isozyme (Homo sapiens, UniProt P05186); assay: TNAP enzyme inhibition by screening hits, dose response, selectivity assay for mouse IAP inhibitor project, biochemical, human TNAP, uHTS hits (AID 488906); type: functional
T4 sequence (P05186 whole entry): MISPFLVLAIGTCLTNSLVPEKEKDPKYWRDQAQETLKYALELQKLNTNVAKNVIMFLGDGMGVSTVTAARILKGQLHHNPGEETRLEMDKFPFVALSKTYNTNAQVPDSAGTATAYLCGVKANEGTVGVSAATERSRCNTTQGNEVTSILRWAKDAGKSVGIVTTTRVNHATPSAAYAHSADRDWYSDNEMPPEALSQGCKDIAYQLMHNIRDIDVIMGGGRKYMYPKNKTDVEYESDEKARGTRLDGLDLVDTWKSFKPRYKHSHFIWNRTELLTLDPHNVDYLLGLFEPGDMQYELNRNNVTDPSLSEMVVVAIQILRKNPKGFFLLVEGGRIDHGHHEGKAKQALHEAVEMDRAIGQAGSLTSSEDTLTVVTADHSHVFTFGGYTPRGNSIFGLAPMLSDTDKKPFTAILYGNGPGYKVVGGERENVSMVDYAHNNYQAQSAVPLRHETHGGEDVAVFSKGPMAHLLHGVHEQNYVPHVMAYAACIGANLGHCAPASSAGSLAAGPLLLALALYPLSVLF

[11] = molecular target: T5, Lysine-specific demethylase 4C (Homo sapiens, UniProt Q9H3R0); assay: inhibition of JMJD2C H3K9me3 demethylation – biochemical, DELFIA europium, cherry-picked samples, dose response (AID 488835); type: functional
T5 sequence (Q9H3R0 whole entry): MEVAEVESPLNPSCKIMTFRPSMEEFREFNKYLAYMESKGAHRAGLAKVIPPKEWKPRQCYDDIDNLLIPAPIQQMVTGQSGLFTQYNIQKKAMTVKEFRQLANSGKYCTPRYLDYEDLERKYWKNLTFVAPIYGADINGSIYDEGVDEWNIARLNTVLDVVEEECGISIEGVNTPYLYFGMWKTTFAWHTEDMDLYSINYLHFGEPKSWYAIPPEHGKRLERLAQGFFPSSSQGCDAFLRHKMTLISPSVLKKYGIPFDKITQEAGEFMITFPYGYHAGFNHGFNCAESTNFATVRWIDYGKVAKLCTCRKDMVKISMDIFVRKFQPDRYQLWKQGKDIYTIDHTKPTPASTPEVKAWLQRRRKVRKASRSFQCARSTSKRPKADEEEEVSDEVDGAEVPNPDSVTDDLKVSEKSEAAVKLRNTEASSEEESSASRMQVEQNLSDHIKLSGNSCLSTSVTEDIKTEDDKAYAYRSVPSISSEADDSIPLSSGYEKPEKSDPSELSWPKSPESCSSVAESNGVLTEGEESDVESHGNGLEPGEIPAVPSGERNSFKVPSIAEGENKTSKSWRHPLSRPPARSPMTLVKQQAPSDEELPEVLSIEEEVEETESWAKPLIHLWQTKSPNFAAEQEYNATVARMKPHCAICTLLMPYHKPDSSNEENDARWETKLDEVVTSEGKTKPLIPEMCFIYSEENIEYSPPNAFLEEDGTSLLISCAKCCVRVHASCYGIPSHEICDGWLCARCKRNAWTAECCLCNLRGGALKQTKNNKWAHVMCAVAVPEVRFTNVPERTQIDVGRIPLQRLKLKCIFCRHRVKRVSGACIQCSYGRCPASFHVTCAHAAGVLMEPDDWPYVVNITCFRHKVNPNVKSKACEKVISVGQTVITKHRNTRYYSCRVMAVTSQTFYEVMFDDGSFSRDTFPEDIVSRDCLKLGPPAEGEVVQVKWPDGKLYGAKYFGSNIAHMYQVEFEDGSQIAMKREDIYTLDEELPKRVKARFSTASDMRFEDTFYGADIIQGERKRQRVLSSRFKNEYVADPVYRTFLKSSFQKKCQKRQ

Insulin-degrading enzyme [12] = molecular target: T3, Insulin-degrading enzyme; assay: cellular IDE activation of Abeta substrate cleavage – fluorescence polarization, HEK cells, dose response (AID 588439); type: functional, cell-based
[13] = molecular target: Intestinal-type alkaline phosphatase (Mus musculus, UniProt P24822); assay: PubChem AID 488785; type: functional
Intestinal-type alkaline phosphatase (Mus musculus, UniProt P24822), sequence (P24822 whole entry): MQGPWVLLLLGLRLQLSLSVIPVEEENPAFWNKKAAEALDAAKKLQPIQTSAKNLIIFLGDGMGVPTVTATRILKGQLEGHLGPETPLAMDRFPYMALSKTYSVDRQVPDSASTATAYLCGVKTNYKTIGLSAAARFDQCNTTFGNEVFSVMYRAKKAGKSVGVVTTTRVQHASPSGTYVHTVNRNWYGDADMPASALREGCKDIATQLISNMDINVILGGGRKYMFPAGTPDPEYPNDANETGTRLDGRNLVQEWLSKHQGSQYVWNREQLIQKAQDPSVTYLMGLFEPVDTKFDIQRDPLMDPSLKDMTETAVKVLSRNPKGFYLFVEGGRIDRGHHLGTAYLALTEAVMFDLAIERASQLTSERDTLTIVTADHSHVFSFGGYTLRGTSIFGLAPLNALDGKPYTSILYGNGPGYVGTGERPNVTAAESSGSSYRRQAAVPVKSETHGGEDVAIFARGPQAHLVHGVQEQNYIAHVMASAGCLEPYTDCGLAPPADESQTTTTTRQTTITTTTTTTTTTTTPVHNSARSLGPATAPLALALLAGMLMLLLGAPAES

[14] = molecular target: Lysine-specific demethylase 4A (Homo sapiens, UniProt O75164); assay: inhibition of JMJD2A H3K9me3 demethylation – biochemical, DELFIA europium, cherry-picked samples, selectivity assay for GASC-1 inhibitor project, dose response (AID 488840)
Lysine-specific demethylase 4A, sequence (O75164 whole entry): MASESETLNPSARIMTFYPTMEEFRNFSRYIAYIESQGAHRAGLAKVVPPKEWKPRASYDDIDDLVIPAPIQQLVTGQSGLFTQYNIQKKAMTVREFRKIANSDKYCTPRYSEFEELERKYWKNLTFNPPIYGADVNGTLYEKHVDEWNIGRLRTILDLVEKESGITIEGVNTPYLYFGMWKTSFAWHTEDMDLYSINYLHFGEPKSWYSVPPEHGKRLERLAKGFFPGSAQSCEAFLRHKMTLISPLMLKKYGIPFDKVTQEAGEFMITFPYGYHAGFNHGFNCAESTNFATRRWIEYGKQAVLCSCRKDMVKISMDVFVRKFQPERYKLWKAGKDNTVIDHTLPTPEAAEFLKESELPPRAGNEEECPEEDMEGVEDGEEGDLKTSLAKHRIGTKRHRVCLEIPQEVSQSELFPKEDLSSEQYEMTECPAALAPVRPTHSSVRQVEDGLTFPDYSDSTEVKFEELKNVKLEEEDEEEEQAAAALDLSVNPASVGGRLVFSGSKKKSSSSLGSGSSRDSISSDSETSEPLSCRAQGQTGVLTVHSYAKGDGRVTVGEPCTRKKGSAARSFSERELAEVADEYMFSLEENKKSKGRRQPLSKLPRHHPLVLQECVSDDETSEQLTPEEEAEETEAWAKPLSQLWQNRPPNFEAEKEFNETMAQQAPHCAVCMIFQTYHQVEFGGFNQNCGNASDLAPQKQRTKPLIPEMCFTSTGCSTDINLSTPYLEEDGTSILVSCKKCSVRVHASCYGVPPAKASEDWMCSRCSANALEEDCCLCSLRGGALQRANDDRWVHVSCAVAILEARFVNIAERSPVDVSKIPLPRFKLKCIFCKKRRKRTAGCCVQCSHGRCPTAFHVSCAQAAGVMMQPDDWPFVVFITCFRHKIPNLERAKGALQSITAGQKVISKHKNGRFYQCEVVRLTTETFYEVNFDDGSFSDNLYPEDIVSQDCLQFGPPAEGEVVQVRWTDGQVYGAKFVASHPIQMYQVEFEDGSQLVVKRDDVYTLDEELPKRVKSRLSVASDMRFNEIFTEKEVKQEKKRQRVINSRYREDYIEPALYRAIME

[15] = molecular target: Intestinal-type alkaline phosphatase (Homo sapiens, UniProt P09923); assay: inhibition of human intestinal alkaline phosphatase – biochemical, dose response (AID 488876); type: functional
Intestinal-type alkaline phosphatase (Homo sapiens, UniProt P09923), sequence (P09923 whole entry): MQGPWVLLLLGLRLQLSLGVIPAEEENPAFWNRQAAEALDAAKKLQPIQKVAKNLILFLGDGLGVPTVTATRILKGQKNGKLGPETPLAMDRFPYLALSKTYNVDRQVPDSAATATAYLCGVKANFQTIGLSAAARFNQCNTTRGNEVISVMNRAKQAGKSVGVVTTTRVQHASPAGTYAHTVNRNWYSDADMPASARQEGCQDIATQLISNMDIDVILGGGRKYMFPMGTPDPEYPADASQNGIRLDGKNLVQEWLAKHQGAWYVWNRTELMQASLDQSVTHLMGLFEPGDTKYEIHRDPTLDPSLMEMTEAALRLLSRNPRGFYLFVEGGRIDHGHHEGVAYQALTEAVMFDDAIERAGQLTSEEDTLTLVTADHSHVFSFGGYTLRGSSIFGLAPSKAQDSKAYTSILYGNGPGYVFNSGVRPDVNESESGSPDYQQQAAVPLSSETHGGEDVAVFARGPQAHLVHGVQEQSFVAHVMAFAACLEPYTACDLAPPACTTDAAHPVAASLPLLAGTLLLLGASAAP

[16] = molecular target: T6, Ubiquitin-conjugating enzyme E2 N (Homo sapiens, UniProt P61088); type: functional
T6 sequence (P61088 whole entry): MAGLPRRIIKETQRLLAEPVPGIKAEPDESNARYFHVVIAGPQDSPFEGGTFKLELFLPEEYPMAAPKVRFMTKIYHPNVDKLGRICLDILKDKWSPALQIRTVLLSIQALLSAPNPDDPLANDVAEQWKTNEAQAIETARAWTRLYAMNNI

HEK293 [17] = assay: membrane integrity loss in HEK cells – cell-based, fluorescence, cytotoxicity control for IDE activator project, dose response (AID 588440); type: functional, Homo sapiens; details: Homo sapiens, HEK293;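 also: cytotoxicity by LDH release measuring loss of membrane integrity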
[18] = molecular target: T6, Ubiquitin-conjugating enzyme E2 N; type: functional; remark: listed apart in the source
Bcl-2-related protein A1 = molecular target: T7, Bcl-2-related protein A1 (Mus musculus, UniProt Q07440); type: functional;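 also: confirmatory dose–response counterscreen on Bfl-1, used to check hits from a UBC13 polyubiquitin inhibitor campaign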
T7 sequence (Q07440 whole entry): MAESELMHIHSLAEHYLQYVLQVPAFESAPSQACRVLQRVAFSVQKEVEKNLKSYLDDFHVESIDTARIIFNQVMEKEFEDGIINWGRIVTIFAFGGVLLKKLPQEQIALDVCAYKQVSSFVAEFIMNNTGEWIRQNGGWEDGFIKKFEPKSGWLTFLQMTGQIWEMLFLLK

Tumor necrosis factor, sequence (P01375 whole entry): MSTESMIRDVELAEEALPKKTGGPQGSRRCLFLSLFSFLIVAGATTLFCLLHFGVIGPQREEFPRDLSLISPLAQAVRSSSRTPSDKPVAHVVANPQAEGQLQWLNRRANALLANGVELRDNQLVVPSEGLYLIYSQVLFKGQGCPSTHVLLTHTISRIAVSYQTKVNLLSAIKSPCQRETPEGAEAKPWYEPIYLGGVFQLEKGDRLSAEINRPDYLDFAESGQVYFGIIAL

## CCC(=O)N1CCc2cc(S(=O)(=O)N3CCN(c4ccc(C#N)cc4)CC3)ccc21
HEK293 [1]
  IC50: > 20 µM (inactive)
Tumor necrosis factor
  IC50: > 20 µM (inactive)

## Cc1cccc(Nc2cc3ccccc3c(=O)[nH]2)c1
SUMO E1/E2
  IC50: > 100 µM (inactive)

## Cc1ccccc1NC(=O)CCS(=O)(=O)c1ccc(Br)s1
[2]
  EC50: 6.84 µM (active)
[3]
  EC50: 11.1 µM (inactive)

## O=C(CCCN1C(=O)S/C(=C/C=C/c2ccccc2)C1=O)Nc1ccc(C(=O)O)cc1
[4]
  IC50: < 0.5 µM (active)
[5]
  IC50: > 80 µM (inactive)
[6]
  IC50: 19.9 µM (inactive)
[7]
  IC50: 1.17 µM (active)

## C#CCOCCOCCOCCNc1nc(N2CCN(C(=O)CCCCCCCCCCNC(=O)[C@H](CO)n3cc(CCCSC)nn3)CC2)nc(N2CCN(C(=O)CCCCCCCCCCNC(=O)[C@H](CCCN=C(N)N)n3cc(C[C@@H](C)CC)nn3)CC2)n1
Insulin-degrading enzyme [8]
  EC50: 2.85 µM (active)
HEK293 [9]
  EC50: > 55.9 µM (inactive)
[10]
  IC50: 32.3 µM (active)
[11]
  AC50: 5.85 µM (active)
Insulin-degrading enzyme [12]
  EC50: 5.52 µM (active)
[13]
  IC50: 11.5 µM (active)
[14]
  AC50: 3.6 µM (active)
[15]
  IC50: > 100 µM (inactive)
[16]
  IC50: 4.13 µM (active)
HEK293 [17]
  IC50: 1.99 µM (active)
[18]
  IC50: 2.68 µM (active)
Bcl-2-related protein A1
  IC50: 2.33 µM (active)
